Results: patent US11197878B2, “Anti-inflammatory composition including novel quercetin-based compound” (AMOREPACIFIC CORPORATION, priority 2017, dated 2021)

Tested on: PGE2 (Prostaglandin E2)
Assay: Test for inhibiting generation of PGE2 in H2O2-stimulated fibroblast (ELISA)
Assay type: cell-based
Conditions: for inhibition at 100 µg/mL: Fibroblast, 100 μg/ml, {1−(test sample−control)/(H2O2−control)}×100, read-out: Inhibition effect according to Equation 1, PGE2; for PGE2: fibroblast culture medium, H2O2 500 μM 24 hours, then test material (31, 32: 100 μg/ml) 48 hours, ELISA
Experimental: Fibroblast (PromoCell, Germany) was inoculated in a 6-well culturing plate at a concentration of 1×10^5 cells, and cultured in a 5% CO2 incubator at 37° C. for 24 hours. The well was treated with H2O2 500 μM and stimulated for 24 hours, and then were treated with quercetin3-O-[3-O″-(E)-p-coumaroyl][β-D-glucopyranosyl-(1→3)-O-α-L-rhamnopyranosyl-(1→6)-O-β-D-glucopyranoside] (‘New Material 31’) and quercetin3-O-[3-O″-(E)-p-coumaroyl][α-L-rhamnopyranosyl-(1→6)-O-β-D-glucopyranoside]) (‘New Material 32’) at a concentration of 100 μg/ml, respectively, and reacted for 48 hours. After the reaction was finished, the culture medium was collected and the ELISA analysis was performed. Herein, α-bisabolol, which is the material typically used as an anti-inflammatory agent and abirritant, was used as a control. As PGE2, a kit of Assay Design® was used, and as IL-6 and IL-8, a kit of Endogen® was used, and the test was carried out according to the methods prescribed in the manuals of the respective companies. (‘31’ refers to New Material 31, and ‘32’ refers to New Material 32) Inhibition effect={1−(test sample−control)/(H2O2−control)}×100 <Equation 1>

Row | Compound | inhibition at 100 µg/mL [%] | PGE2 [pg/mL]
1 | C[C@@H]1O[C@@H](OC[C@H]2O[C@@H](Oc3c(-c4ccc(O)c(O)c4)oc4cc(O)cc(O)c4c3=O)[C@H](O)[C@@H](OC(=O)/C=C/c3ccc(O)cc3)[C@@H]2O)[C@H](O)[C@H](O[C@@H]2O[C@H](CO)[C@@H](O)[C@H](O)[C@H]2O)[C@H]1O [New Material 31, quercetin3-O-[3-O″-(E)-p-coumaroyl][β-D-glucopyranosyl-(1→3)-O-α-L-rhamnopyranosyl-(1→6)-O-β-D-glucopyranoside]] | 51.7 | 275
2 | C[C@@H]1O[C@@H](OC[C@H]2O[C@@H](Oc3c(-c4ccc(O)c(O)c4)oc4cc(O)cc(O)c4c3=O)[C@H](O)[C@@H](OC(=O)/C=C/c3ccc(O)cc3)[C@@H]2O)[C@H](O)[C@H](O)[C@H]1O [New Material 32, quercetin3-O-[3-O″-(E)-p-coumaroyl][α-L-rhamnopyranosyl-(1→6)-O-β-D-glucopyranoside]] | 48.3 | 280
